What follows are compounds tested against CXCR7 (Homo sapiens (Human), UniProt P25106) (assay: PathHunter CHO-K1 CXCR7 b-arrestin assay (agonistic activity)). Conditions: PathHunter CHO-K1 CXCR7 b-arrestin cell line.
Assay type: cell-based
Description: The CXCl12 receptor and CXCR7 agonistic activities of the compounds of formula (I) are determined in accordance with the following experimental method.
The assay is using the PathHunter™ CHO-K1 CXCR7 b-arrestin cell line from DiscoverX. The system is based on the Enzyme Fragment Complementation Technology. Two complementing fragments of the b-galactosidase enzyme are expressed within stably transfected cells. The larger portion of b-gal, termed EA for Enzyme Acceptor, is fused to the C-terminus of b-arrestin 2. The smaller fragment, termed ProLink™ tag, is fused to CXCR7 at the C-terminus. Upon activation, b-arrestin is recruited which forces the interaction of ProLink and EA, allowing complementation of the two fragments of b-gal and the formation of a functional enzyme which is capable of hydrolysing the substrate and generating a chemiluminescent signal.
CHO-K1 CXCR7 b-arrestin cells are detached from culture dishes with a cell dissociation buffer (Invitrogen, #13151-014) and collected in growing medium (F12 HAMS 90% (v/v)/FCS 10% (v/v), Penicilin/streptomycin 1% (v/v)). 5000 cells per well (in 20 μl) are seeded in a 384 well plate (white-walled, clear bottom; BD Falcon #353274). The plate is incubated at 37° C./5% CO2 for 24 hours. Medium is then replaced by 20 μl OPTIMEM (Invitrogen #31985) for 3 to 4 hours. Test compounds are dissolved at 10 mM in DMSO and serially diluted in DMSO to 200× of the final concentration for dose response curves. Compounds are then diluted 1:33.3 in HBSS1×. 5 μl/well of HBSS1×/20 mM HEPES/0.2% BSA are added to the assay plate followed by addition of 5 μl/well of diluted compounds. CXCL12 (Peprotech #300-28A) may be used as a reference agonist. The plate is incubated for 90 minutes at 37° C. 12 μl of detection reagent (Path Hunter Detection Kit, DiscoveRx, #93-0001) is transferred to the assay plate and to the plate is incubated for 1 hour at room temperature. Luminescent signal is read in a microplate reader (FLUOstar Optima, bmg). The calculated EC50 values may fluctuate depending on the daily cellular assay performance. Fluctuations of this kind are known to those skilled in the art. Average EC50 values from several measurements are given as geometric mean values.

CXCR7, sequence (P25106 whole entry): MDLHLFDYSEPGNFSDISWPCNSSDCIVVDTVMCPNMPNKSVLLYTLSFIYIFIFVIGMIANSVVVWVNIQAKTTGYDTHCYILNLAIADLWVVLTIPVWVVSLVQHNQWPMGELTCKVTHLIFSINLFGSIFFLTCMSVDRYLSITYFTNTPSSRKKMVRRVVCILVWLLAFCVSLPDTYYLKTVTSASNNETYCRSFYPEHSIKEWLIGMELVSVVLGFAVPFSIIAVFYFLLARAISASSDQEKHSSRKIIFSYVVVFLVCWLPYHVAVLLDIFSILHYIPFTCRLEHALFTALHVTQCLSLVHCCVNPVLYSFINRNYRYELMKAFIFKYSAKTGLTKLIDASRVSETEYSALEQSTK
CXCR7, sequence (P32121 whole entry partner): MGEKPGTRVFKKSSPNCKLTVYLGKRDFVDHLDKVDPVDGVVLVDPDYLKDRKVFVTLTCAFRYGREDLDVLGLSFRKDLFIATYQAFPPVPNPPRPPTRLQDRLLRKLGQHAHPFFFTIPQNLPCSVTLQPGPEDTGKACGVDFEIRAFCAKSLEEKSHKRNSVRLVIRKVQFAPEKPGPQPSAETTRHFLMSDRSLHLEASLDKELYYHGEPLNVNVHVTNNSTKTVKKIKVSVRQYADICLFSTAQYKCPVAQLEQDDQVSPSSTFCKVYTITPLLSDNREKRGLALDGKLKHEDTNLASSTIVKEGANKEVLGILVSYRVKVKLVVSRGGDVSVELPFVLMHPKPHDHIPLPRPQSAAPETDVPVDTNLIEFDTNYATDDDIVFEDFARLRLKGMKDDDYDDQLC

First: COc1cc(C(=O)Nc2cccc(CN3CCC(C(=O)NC4CCCCC4)CC3)c2)nc(OC)n1 [Example 1.062]
Second: COc1cc(C(=O)Nc2cccc(CN3CCC(C(=O)NC4CCCCC4)CC3)c2)cc(Cl)n1 [Example 1.075]
The EC50 of the first is 6.3-fold higher: 57 nM for the first, 9 nM for the second.

First: Cc1ccncc1C(=O)Nc1cccc(CN2CCC(C(=O)NC3CCCCC3)CC2)c1 [Example 1.063]
Second: O=C(Nc1cccc(CN2CCC(C(=O)NC3CCCCC3)CC2)c1)c1ccncc1Cl [Example 1.074]
The EC50 of the first is 4-fold higher: 237 nM for the first, 60 nM for the second. The second is the more potent here.

Going from `Cc1ccc(C(=O)Nc2cccc(CN3CCC(C(=O)NC4CCCCC4)CC3)c2)cn1` [Example 1.064] to `O=C(Nc1cccc(CN2CCC(C(=O)NC3CCCCC3)CC2)c1)c1ccc(Cl)nc1` [Example 1.067], the EC50 falls from 19 nM to 2 nM (9.5-fold). The second is the more potent here.

`Cc1ncccc1C(=O)Nc1cccc(CN2CCC(C(=O)NC3CCCCC3)CC2)c1` [Example 1.065] and `O=C(Nc1cccc(CN2CCC(C(=O)NC3CCCCC3)CC2)c1)c1cccnc1Cl` [Example 1.066] are within 1.5-fold of each other in EC50: 59 nM for the first, 44 nM for the second.

`O=C(Nc1cccc(CN2CCC(C(=O)NC3CCCCC3)CC2)c1)c1ccc(C(F)(F)F)nc1` [Example 1.068] and `O=C(Nc1cccc(CN2CCC(C(=O)NC3CCCCC3)CC2)c1)c1cccc(C(F)(F)F)c1` [Example 1.104] are within 1.5-fold of each other in EC50: 7 nM for the first, 5 nM for the second.

First: COc1ncccc1C(=O)Nc1cccc(CN2CCC(C(=O)NC3CCCCC3)CC2)c1 [Example 1.069]
Second: O=C(Nc1cccc(CN2CCC(C(=O)NC3CCCCC3)CC2)c1)c1ncccc1Br [Example 1.085]
The EC50 of the first is 10-fold higher: 10 nM for the first, 1 nM for the second. The second is the more potent here.

Going from `Cc1ccc(C(=O)Nc2cccc(CN3CCC(C(=O)NC4CCCCC4)CC3)c2)c(Cl)n1` [Example 1.070] to `O=C(Nc1cccc(CN2CCC(C(=O)NC3CCCCC3)CC2)c1)c1ccc(Cl)nc1Cl` [Example 1.091], the EC50 falls from 40 nM to 12 nM (3.3-fold).

Going from `CCN(CC)c1ccc(C(=O)Nc2cccc(CN3CCC(C(=O)NC4CCCCC4)CC3)c2)cn1` [Example 1.071] to `COc1ccc(C(=O)Nc2cccc(CN3CCC(C(=O)NC4CCCCC4)CC3)c2)cn1` [Example 1.092], the EC50 falls from 182 nM to 3 nM (61-fold). The second is the more potent here.

First: CN1CCN(c2ccc(C(=O)Nc3cccc(CN4CCC(C(=O)NC5CCCCC5)CC4)c3)cn2)CC1 [Example 1.072]
Second: O=C(Nc1cccc(CN2CCC(C(=O)NC3CCCCC3)CC2)c1)c1ccc(N2CCCC2)cn1 [Example 1.084]
The EC50 of the first is 12-fold higher: 471 nM for the first, 39 nM for the second.

Compared with `O=C(Nc1cccc(CN2CCC(C(=O)NC3CCCCC3)CC2)c1)c1cccnc1N1CCOCC1` [Example 1.073], `O=C(Nc1cccc(CN2CCC(C(=O)NC3CCCCC3)CC2)c1)c1ncccn1` [Example 1.087] is 10-fold lower in EC50: 371 nM for the first, 36 nM for the second. The second is the more potent here.

Compared with `O=C(Nc1cccc(CN2CCC(C(=O)NC3CCCCC3)CC2)c1)c1cnc2[nH]ccc2c1` [Example 1.076], `O=C(Nc1cccc(CN2CCC(C(=O)NC3CCCCC3)CC2)c1)c1cnc2cc[nH]c2c1` [Example 1.093] is 5.7-fold higher in EC50: 26 nM for the first, 149 nM for the second. The first is the more potent here.

`O=C(Nc1cccc(CN2CCC(C(=O)NC3CCCCC3)CC2)c1)c1cc(Cl)ccn1` [Example 1.077] and `Cc1ccnc(C(=O)Nc2cccc(CN3CCC(C(=O)NC4CCCCC4)CC3)c2)c1` [Example 1.082] are within 1.5-fold of each other in EC50: 3 nM for the first, 4 nM for the second.

`O=C(Nc1cccc(CN2CCC(C(=O)NC3CCCCC3)CC2)c1)c1cccc(Cl)n1` [Example 1.078] and `Cc1cccc(C(=O)Nc2cccc(CN3CCC(C(=O)NC4CCCCC4)CC3)c2)n1` [Example 1.081] are within 1.5-fold of each other in EC50: 1 nM for the first, 0.9 nM for the second.

`O=C(Nc1cccc(CN2CCC(C(=O)NC3CCCCC3)CC2)c1)c1cccc[n+]1[O-]` [Example 1.080] and `Cc1ccccc1C(=O)Nc1cccc(CN2CCC(C(=O)NC3CCCCC3)CC2)c1` [Example 1.099] are within 1.5-fold of each other in EC50: 14 nM for the first, 19 nM for the second.

Going from `Cc1cc(C)nc(C(=O)Nc2cccc(CN3CCC(C(=O)NC4CCCCC4)CC3)c2)c1` [Example 1.083] to `Cc1cc(C)cc(C(=O)Nc2cccc(CN3CCC(C(=O)NC4CCCCC4)CC3)c2)c1` [Example 1.112], the EC50 rises from 11 nM to 21 nM (1.9-fold).

Going from `Cc1ncncc1C(=O)Nc1cccc(CN2CCC(C(=O)NC3CCCCC3)CC2)c1` [Example 1.086] to `Cc1cccc(C(=O)Nc2cccc(CN3CCC(C(=O)NC4CCCCC4)CC3)c2)c1C` [Example 1.109], the EC50 falls from 527 nM to 40 nM (13-fold). The second is the more potent here.

Going from `Cc1cc(C(=O)Nc2cccc(CN3CCC(C(=O)NC4CCCCC4)CC3)c2)nc(N(C)C)n1` [Example 1.088] to `Cc1ccc(C)c(C(=O)Nc2cccc(CN3CCC(C(=O)NC4CCCCC4)CC3)c2)c1` [Example 1.110], the EC50 falls from 24 nM to 8 nM (3-fold). The second is the more potent here.

Compared with `O=C(Nc1cccc(CN2CCC(C(=O)NC3CCCCC3)CC2)c1)c1cc(F)c(Cl)nc1Cl` [Example 1.089], `O=C(Nc1cccc(CN2CCC(C(=O)NC3CCCCC3)CC2)c1)c1cnc(Cl)c(Cl)c1` [Example 1.090] is 2.5-fold lower in EC50: 15 nM for the first, 6 nM for the second. The second is the more potent here.

Compared with `O=C(Nc1cccc(CN2CCC(C(=O)NC3CCCCC3)CC2)c1)c1ccc(Cl)cn1` [Example 1.094], `Cc1ccc(F)c(C(=O)Nc2cccc(CN3CCC(C(=O)NC4CCCCC4)CC3)c2)c1` [Example 1.116] is 6-fold higher in EC50: 1 nM for the first, 6 nM for the second.

`O=C(Nc1cccc(CN2CCC(C(=O)NC3CCCCC3)CC2)c1)c1ccccc1OC(F)(F)F` [Example 1.095] and `O=C(Nc1cccc(CN2CCC(C(=O)NC3CCCCC3)CC2)c1)c1ccccc1F` [Example 1.102] are within 1.5-fold of each other in EC50: 5 nM for the first, 4 nM for the second.

First: CN(C)c1ccc(C(=O)Nc2cccc(CN3CCC(C(=O)NC4CCCCC4)CC3)c2)cc1 [Example 1.096]
Second: Cc1ccc(C(=O)Nc2cccc(CN3CCC(C(=O)NC4CCCCC4)CC3)c2)cc1 [Example 1.101]
The EC50 of the first is 10-fold higher: 40 nM for the first, 4 nM for the second.

First: CCc1ccc(C(=O)Nc2cccc(CN3CCC(C(=O)NC4CCCCC4)CC3)c2)cc1 [Example 1.097]
Second: CC(C)c1ccc(C(=O)Nc2cccc(CN3CCC(C(=O)NC4CCCCC4)CC3)c2)cc1 [Example 1.098]
The EC50 of the first is 2.4-fold lower: 5 nM for the first, 12 nM for the second.

First: Cc1cccc(C(=O)Nc2cccc(CN3CCC(C(=O)NC4CCCCC4)CC3)c2)c1 [Example 1.100]
Second: N#Cc1cccc(C(=O)Nc2cccc(CN3CCC(C(=O)NC4CCCCC4)CC3)c2)c1 [Example 1.106]
The EC50 of the first is 4-fold lower: 3 nM for the first, 12 nM for the second. The first is the more potent here.

Compared with `O=C(Nc1cccc(CN2CCC(C(=O)NC3CCCCC3)CC2)c1)c1ccc(C(F)(F)F)cc1` [Example 1.105], `N#Cc1ccc(C(=O)Nc2cccc(CN3CCC(C(=O)NC4CCCCC4)CC3)c2)cc1` [Example 1.107] is 1.6-fold higher in EC50: 5 nM for the first, 8 nM for the second.

Going from `Cc1cccc(C)c1C(=O)Nc1cccc(CN2CCC(C(=O)NC3CCCCC3)CC2)c1` [Example 1.108] to `Cc1ccc(C(=O)Nc2cccc(CN3CCC(C(=O)NC4CCCCC4)CC3)c2)cc1C` [Example 1.113], the EC50 falls from 633 nM to 7 nM (90-fold). The second is the more potent here.

`Cc1ccc(C(=O)Nc2cccc(CN3CCC(C(=O)NC4CCCCC4)CC3)c2)c(C)c1` [Example 1.111] and `Cc1cc(F)ccc1C(=O)Nc1cccc(CN2CCC(C(=O)NC3CCCCC3)CC2)c1` [Example 1.115] are within 1.5-fold of each other in EC50: 4 nM for the first, 5 nM for the second.

Going from `Cc1c(F)cccc1C(=O)Nc1cccc(CN2CCC(C(=O)NC3CCCCC3)CC2)c1` [Example 1.114] to `Cc1c(Cl)cccc1C(=O)Nc1cccc(CN2CCC(C(=O)NC3CCCCC3)CC2)c1` [Example 1.120], the EC50 rises from 13 nM to 35 nM (2.7-fold).

`Cc1cc(F)cc(C(=O)Nc2cccc(CN3CCC(C(=O)NC4CCCCC4)CC3)c2)c1` [Example 1.117] and `Cc1cc(C(=O)Nc2cccc(CN3CCC(C(=O)NC4CCCCC4)CC3)c2)ccc1F` [Example 1.118] are within 1.5-fold of each other in EC50: 4 nM for the first, 3 nM for the second.

`Cc1ccc(C(=O)Nc2cccc(CN3CCC(C(=O)NC4CCCCC4)CC3)c2)c(F)c1` [Example 1.119] gave an EC50 of 6 nM.
